Source: publication PMC3119931 (2011)

Key:
[1] = test system: GRA (B. subtilis xpt-pbuX guanine riboswitch C74U aptamer domain) (RNA, riboswitch) GGACAUAUAAUCGCGUGGAUAUGGCACGCAAGUUUCUACCGGGCACCGUAAAUGUCCGAUUAUGUCC; assay: 2-aminopurine fluorescence titration; settings: 100 mM KCl, 10 mM MgCl2; 50 mM Tris-HCl pH 8.3; RNA titrated into 200 nM 2-aminopurine
[2] = test system: GRA (B. subtilis xpt-pbuX guanine riboswitch C74U aptamer domain) (RNA, riboswitch) GGACAUAUAAUCGCGUGGAUAUGGCACGCAAGUUUCUACCGGGCACCGUAAAUGUCCGAUUAUGUCC; assay: 2-aminopurine displacement fluorescence competition; settings: 100 mM KCl, 10 mM MgCl2, 50 mM Tris-HCl pH 8.3
[3] = test system: GRA (B. subtilis xpt-pbuX guanine riboswitch C74U aptamer domain) (RNA, riboswitch) GGACAUAUAAUCGCGUGGAUAUGGCACGCAAGUUUCUACCGGGCACCGUAAAUGUCCGAUUAUGUCC; assay: X-ray crystallography; settings: cocrystal structure, 1.6 Å
[4] = 2-aminopurine displaced (KL 140 nM), 243 nM RNA

`Nc1ncc2[nH]cnc2n1` showed a KL [1] of 140 nM.
In the case of `Nc1cc(N)nc(N)n1`, the binding constant [2, 4] is reported as 0.014 ± 0.001 mM.
In the case of `Cc1nc(N)nc(N)n1`, the KD [2, 4] is reported as 110 ± 30 µM.
With `Nc1nc(N)nc(Cl)n1` the binding ([2]; 2-aminopurine displaced, highest concentration tested 120 μM) was “no”.
In the case of `Nc1nc2[nH]nc(N)n2n1`, the KD [2, 4] is reported as 370 ± 40 µM.
`Nc1ncnc(N)n1` was tested, and the KD [2, 4] was 80 ± 20 µM.
`CNc1ncnc2[nH]cnc12` was tested, and the binding [3] was “yes”.
